Test results as given in the supplement of paper PMC5844555.

What was measured:
Assay in all cases: 3' UTR reporter interaction score (median-centred robust z-score of log2 firefly/Renilla activity); higher = less repression of the 3' UTR reporter
Details in all cases: HEK293T; 48 h
MYC = test system: MYC
Procedure, shortened: (§1)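 The interaction score is based on the log-transformed firefly/Renilla luciferase ratio, scaled as a robust z-score within each plate by median and median absolute deviation and median-centred for each miRNA; more negative scores indicate interaction. It was averaged over at least two independent screens. Readings were taken 48 h after HEK293T cells (10,000/well, 96-well plates) were co-transfected by DharmaFECT Duo with 100 ng firefly luc2P 3' UTR reporter, 20 ng Renilla pRL-TK and 2.5 pmol miRNA mimic.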

NOTCH1 = test system: NOTCH1
Procedure, shortened: as §1

PHOX2B = test system: PHOX2B
Procedure, shortened: as §1

HRAS = test system: HRAS
Procedure, shortened: as §1

RB1 = test system: RB1
Procedure, shortened: as §1

MYT1L = test system: MYT1L
Procedure, shortened: as §1

BRCA2 = test system: BRCA2
Procedure, shortened: as §1

MYB = test system: MYB
Procedure, shortened: as §1

PHF6 = test system: PHF6
Procedure, shortened: as §1

MYCN = test system: MYCN
Procedure, shortened: as §1

ZEB2 = test system: ZEB2
Procedure, shortened: as §1

TP53 = test system: TP53
Procedure, shortened: as §1

FBXW7 = test system: FBXW7
Procedure, shortened: as §1

EZH2 = test system: EZH2
Procedure, shortened: as §1

Sequence | 3' UTR reporter interaction score (MYC) | 3' UTR reporter interaction score (NOTCH1) | 3' UTR reporter interaction score (PHOX2B) | 3' UTR reporter interaction score (HRAS) | 3' UTR reporter interaction score (RB1) | 3' UTR reporter interaction score (MYT1L) | 3' UTR reporter interaction score (BRCA2) | 3' UTR reporter interaction score (MYB) | 3' UTR reporter interaction score (PHF6) | 3' UTR reporter interaction score (MYCN) | 3' UTR reporter interaction score (ZEB2) | 3' UTR reporter interaction score (TP53) | 3' UTR reporter interaction score (FBXW7) | 3' UTR reporter interaction score (EZH2)
CAAAGUUUAAGAUCCUUGAAGU | -0.333 | -0.31 | -2.34 | 0.215 | 0.395 | 0.732 | 0.573 | 0.577 | 0.33 | -0.796 | -0.576 | -0.363 | -0.767 | 0.55
AAUUGCACUUUAGCAAUGGUGA | 0.3 | -0.161 | 0.339 | -0.0471 | 1.39 | 0.317 | 1.07 | -0.332 | 2.86 | 0.969 | -2.8 | -1.5 | -4.25 | -0.64
UAUUGCACUCGUCCCGGCCUC | 0.586 | -1.13 | 1.55 | -0.467 | 0.116 | -1.11 | 0.27 | 0.69 | 0.726 | 1.3 | -1.97 | -0.261 | -2.89 | -0.851
UGGUCUAGGAUUGUUGGAGGAG | 0.131 | -3.72 | -0.574 | 1.1 | -0.907 | -1.45 | 0.659 | 0.332 | -1.9 | 0.689 | -1.89 | 0.772 | -0.0822 | 1.07
ACUUACAGACAAGAGCCUUGCUC | 0.117 | 0.216 | 1.47 | 1.57 | -0.353 | -1.75 | 0.948 | -2.25 | -1.11 | -0.0923 | -0.165 | 0.219 | 1.72 | -1.69
AAUCAUACACGGUUGACCUAUU | -0.182 | -0.221 | -0.199 | -0.256 | -0.342 | 0.0899 | -0.246 | 0.393 | -0.4 | 0.277 | -1.95 | -0.0204 | 0.544 | 0.236
UAACAGUCUACAGCCAUGGUCG | 0.473 | -0.392 | -0.125 | 0.64 | -1.41 | 1 | -0.186 | 0.1 | -0.351 | 0.783 | -0.631 | -1.07 | -0.629 | 1.32
CCUCUGGGCCCUUCCUCCAG | -0.307 | -0.555 | -0.825 | 0.196 | 0.604 | -1.13 | 1.66 | 0.205 | 1.9 | 0.2 | 0.525 | 1.37 | -0.553 | -0.302
UGAGGUAGUAGGUUGUGUGGUU | -4.84 | -0.305 | 0.11 | 0.13 | 1.01e-16 | 0.566 | 1.21 | 0.859 | 0.852 | -4.48 | -1.14 | 0.495 | 0.642 | -3.63
GCUAGUCCUGACUCAGCCAGU | -0.713 | -0.242 | 0.384 | -0.409 | 0.4 | 0.167 | 4.86e-17 | 0.624 | -0.0579 | 0.0989 | 0.364 | -0.219 | 0.368 | -0.186
